Laboratory results published in patent US20180371021A1, “PEPTIDOMIMETIC MACROCYCLES AND USES THEREOF” (Aileron Therapeutics, Inc., priority 2017, published 2018).
Bridge positions count the residues as written; N and C are the ends. Square brackets hold non-standard residues; d marks the D form. Peptide text beside a SMILES is read from it. Phe(4-COOH) = N[C@@H](Cc1ccc(C(=O)O)cc1)C(=O)O; R8 = C=CCCCCCC[C@@](C)(N)C(=O)O; Cba = N[C@@H](CC1CCC1)C(=O)O; S5 = C=CCCC[C@](C)(N)C(=O)O

Experiments:
[1] = tested on: MCF-7 breast cancer xenograft; assay: MCF-7 breast cancer xenograft study using SP315, SP249 and SP154; type: in vivo, mice
Protocol: Slow release 90 day 0.72 mg 17β-estradiol pellets were implanted subcutaneously (sc) on the nape of the neck one day prior to tumor cell implantation (Day −1). On Day 0, MCF-7 tumor cells were implanted sc in the flank of female nude (Cr1:NU-Foxn1nu) mice. On Day 18, the resultant sc tumors were measured using calipers to determine their length and width, and the mice were weighed. The tumor sizes were calculated using the formula (length×width^2)/2, and expressed as cubic millimeters (mm^3). Mice with tumors smaller than 85.3 mm^3 or larger than 417.4 mm^3 were excluded from the subsequent group formation. Thirteen groups of mice, 10 mice per group, were formed by randomization such that the group mean tumor sizes were essentially equivalent (mean of groups±standard deviation of groups=180.7±17.5 mm^3).
The peptide formulations were prepared once for the duration of the study. The vehicle was used as the vehicle control in the subsequent study.
Each group was assigned to a different treatment regimen. Group 1, as the vehicle negative control group, received the vehicle administered at 8 mL/kg body weight intravenously (I.V.) three times per week from Days 18-39. […] Group 4 received 6.7 mg/kg SP249 as an I.V. injection three times per week. […] Group 9 received 30 mg/kg SP252 as an I.V. injection three times per week.
During the dosing period, the mice were weighed and the tumors were measured 1-2 times per week. Tumor growth inhibition was compared with the vehicle group. Tumor growth inhibition (TGI) was calculated as
where x=day that effect of treatment is being assessed.

A549 xenograft = A549 xenograft model, AP1 and palbociclib; type: in vivo, mice; settings: AP1 20 mg/kg qwkx4, palbociclib 75 mg/kg qdx22
Description: The arrows indicate spontaneous tumor shrinkage in vehicle controls. The arrows with * indicate poor growth of tumors late in the study.

[2] = tested on: SJSA-1 osteosarcoma xenograft; assay: SJSA-1 osteosarcoma xenograft model, AP1 and palbociclib; type: in vivo, mice; settings: AP1 20 mg/kg qwkx4, palbociclib 75 mg/kg qdx22
Protocol: (§1) The group was not euthanized, and the mice were allowed to recover. […] Animals were monitored individually. […] Responders were followed for a longer period of time. When the endpoint was reached, the animals were euthanized. […] An aqueous phosphate-buffered saline solution or sodium lactate (50 mM, pH 4.0) solution was used as the vehicle.

[3] = tested on: MCF-7.1 human breast carcinoma xenograft; assay: MCF-7.1 human breast carcinoma xenograft model, AP1 and palbociclib; type: in vivo, mice; settings: AP1 20 mg/kg qwkx4, palbociclib 75 mg/kg qdx22
Protocol: as §1, with “Female athymic nude mice were provided with drinking water with 10 μg/mL with 17 beta estradiol supplementation 3 days prior to cell implantation and for the duration of the study. […] The mice were between 8-12 weeks of age at the beginning of the study. […] The” for “The”

[4] = 39 patients treated with nivolumab; 30 patients treated with pembrolizumab; cited from earlier work
[5] = d22, calculated using vehicle median volumes on d0 and d22
[6] = three consecutive measurements > 150% of d1 volume

Compound: CC[C@H](C)[C@H](NC(=O)[C@H](C)NC(=O)[C@H](C)NC(=O)[C@]1(C)CCCC=CCCCCCC[C@@](C)(NC(=O)[C@H](Cc2ccccc2)NC(=O)[C@@H](NC(=O)[C@H](CC(C)C)NC(C)=O)[C@@H](C)O)C(=O)N[C@@H](CCC(=O)O)C(=O)N[C@@H](Cc2ccc(C(=O)O)cc2)C(=O)N[C@@H](Cc2c[nH]c3ccccc23)C(=O)N[C@@H](C)C(=O)N[C@@H](CCC(N)=O)C(=O)N[C@@H](CC2CCC2)C(=O)N1)C(=O)N[C@H](C)C(N)=O [SP249] (Ac-LTF[R8]E[Phe(4-COOH)]WAQ[Cba][S5]AAI[dA]-NH2; staple 4-11)
- mice died ([1]; […] three times per week): 4

Compound: CC(=O)N[C@@H](CC(C)C)C(=O)N[C@H](C(=O)N[C@@H](C)C(=O)N[C@]1(C)CCCCCCC=CCCC[C@@](C)(C(=O)N[C@@H](CO)C(=O)N[C@@H](C)C(=O)N[C@@H](C)C(N)=O)NC(=O)[C@H](CC2CCC2)NC(=O)[C@H](CCC(N)=O)NC(=O)[C@H](C)NC(=O)[C@H](Cc2c[nH]c3ccccc23)NC(=O)[C@H](Cc2ccc(O)cc2)NC(=O)[C@H](CCC(=O)O)NC1=O)[C@@H](C)O [SP252]
- body weight loss or deaths ([1]; 30 mg/kg three times per week): No body weight loss or deaths
- TGI ([1]; 30 mg/kg three times per week, day 32): 88%

Compound: CC(=O)c1c(C)c2cnc(Nc3ccc(N4CCNCC4)cn3)nc2n(C2CCCC2)c1=O [palbociclib, reference compound]
- Median tumor volume (mm^3) D1 (A549 xenograft; D1 (start of dosing), A549 xenograft, nude mice): 126 mm^3
- Median tumor volume (mm^3) D22 (A549 xenograft; D22, A549 xenograft, nude mice): 288 mm^3
- % TGI (±SEM) on d22 (end of dosing) (A549 xenograft; [5]): 62 (7) %
- Animals with disease progression (A549 xenograft; [6]): 9/10
- Median tumor volume (mm^3) D1 ([2]; D1 (start of dosing), SJSA-1 xenograft, nude mice): 126 mm^3
- Median tumor volume (mm^3) D22 ([2]; D22, SJSA-1 xenograft, nude mice): 1418 mm^3
- Median time to tumor volume > 1000 mm^3 ([2]; SJSA-1 xenograft): 18 days
- Median time to tumor volume > 2000 mm^3 ([2]; SJSA-1 xenograft): 24 days
- % TGI (±SEM) on d22 (end of dosing) [2, 5]: 51 (9) %
- Animals with disease progression [2, 6]: 9/10
- Median tumor volume (mm^3) D1 ([3]; D1 (start of dosing), MCF-7.1 xenograft, nude mice): 108 mm^3
- Median tumor volume (mm^3) D22 ([3]; D22, MCF-7.1 xenograft, nude mice): 196 mm^3
- Median time to tumor volume > 500 mm^3 ([3]; MCF-7.1 xenograft): 37 days
- Median time to tumor volume > 1000 mm^3 ([3]; MCF-7.1 xenograft): 48 days
- % TGI (±SEM) on d22 (end of dosing) [3, 5]: 84 (4) %
- Animals with disease progression [3, 6]: 8/8

Compound: nivolumab: PD-1/PD-L1 antagonist
- PRs [4]: 2
- SDs [4]: 12
- complete responses [4]: 1
- shrinkages among SDs [4]: 2

Compound: pembrolizumab: PD-1/PD-L1 antagonist
- PRs [4]: 3
- SDs [4]: 11
- complete responses [4]: 2
- shrinkages among SDs [4]: 3
